{"source": "patent US6399745B1", "about": "“Use of leptin antagonists for treating insulin resistance in type II diabetes” (Aventis Pharma Deutschland GmbH, priority 1996, dated 2002)", "test_system": "isolated rat adipocytes", "assay": "Glucose transport (2-deoxyglucose uptake) in isolated rat adipocytes after primary culture with leptin, basal and insulin-stimulated", "assay_type": "cell-based", "settings": "for Glucose Transport, stimulation factor for insulin (stimulated/basal): Insulin concentration: 5 nM", "procedure": "Adipocytes were prepared from the epididymal fat tissue of male Wistar rats (140-160 g, Hoechst AG breeding station, Kastengrund) by means of digesting with collagenase (Rodbell, 1964, J. Biol. Chem. 239, 375-380), washed twice with KRH (25 mM Hepes free acid, 25 mM Hepes sodium salt, 80 mM NaCl, 1 mM MgSO4, 2 mM CaCl2, 6 mM KCl, 1 mM sodium pyruvate, 0.5% BSA) and once with DMEM (Dulbecco's minimal essential medium), supplemented with 5.5 mM glucose, 20 mM Hepes (pH 7.4), 2% fetal calf serum, 1% BSA, 50 U of penicillin/ml, […], by means of flotation (800×g, 1 min, in small plastic tubes), and finally diluted to a volume of 20 ml of DMEM/g wet weight of the fat tissue (cell titer: approximately 2.5×10^5 cells/ml).\nThe adipocytes were incubated, at 37° C. for 15-18 h under an atmosphere of 5% CO2 and with gentle shaking, in supplemented (see above) DMEM in the presence of 100 nM phenylisopropyladenosine (4 ml of DMEM to 1 ml of cells, cell titer approximately 5×10^4 cell/ml, in 50 ml sterile polypropylene: tubes) and in the presence or absence of leptin. The adipocytes were subsequently washed three times with cold KRH and adjusted to a cell titer of approximately 3×10^5 cells/ml by adding 0.7 ml of glucose-free KRH to the cell layer which remained after the complete removal of the last washing solution. In order to determine the capacity of the adipocytes to be stimulated by insulin, and their sensitivity to insulin, following the primary culture, the washed adipocytes were incubated at 37° C. for 20 min in the absence or presence of human insulin (0.02-50 nM final concentration), and glucose transport or lipogenesis was then measured.\nGlucose transport was measured as the specific uptake of the non-metabolizable glucose analog 2-deoxyglucose (Muller and Wied, 1993, Diabetes 42, 1852-1867). 50 μl of the adipocyte suspension in KRH, which suspension had or had not been preincubated with insulin (see above), were incubated, at 25° C. for 5 min, with 50 μl of KRH which was supplemented with 2-deoxy-D-[2,6-^3H]glucose (0.5 μCi, 0.2 mM). The incubation mixtures were transferred to thin soft-plastic centrifuge tubes, each of which already contained 200 μl of dinonyl phthalate oil, and immediately centrifuged (2,000×g, 30 sec). Using special shears, the tubes were severed within the oil layer (in the vicinity of the upper edge) and the upper halves of the tubes, together with the cell layers which had in each case been floated onto the oil layer, were transferred to scintillation vials. After 10 ml of scintillation fluid (water-based) had been added, the radioactivity associated with the cells was measured. In order to correct for 2-deoxyglucose which had become enclosed in the cell interstices, or had diffused into the cells, in a non-specific manner, the radioactivity of cells which had been preincubated with cytochalasin B (20 μM) was subtracted from the total cell-associated radioactivity of each individual incubation mixture (Gliemann et al., 1972, Biochim. Biophys. Acta 286, 1-9).\nIsolated rat adipocytes were incubated for 15 h in primary culture in the presence or absence of increasing concentrations of leptin. […] The stimulation factor for insulin was calculated as the ratio between insulin-stimulated and basal activities. Each value represents the mean from two independent adipocyte cultures with activity being determined two or three times in each case.\nThe cells were then washed and tested for the stimulation of glucose transport by differing concentrations of insulin. Glucose transport activity is given as a “dpm value” of the 2deoxy-[^3H]glucose which is specifically associated with the cells. Each value represents the mean from two independent adipocyte cultures with the activity being determined four times in each case.", "data": [{"substance": "Leptin", "values": [{"measurement": "glucose transport, uptake of 3H-labeled 2-deoxyglucose", "setting": "leptin 5 nM 16.5 h, insulin 1 nM", "value": 1583, "unit": "dpm"}, {"measurement": "glucose transport, uptake of 3H-labeled 2-deoxyglucose", "setting": "leptin 5 nM 16.5 h, insulin 2 nM", "value": 2140, "unit": "dpm"}, {"measurement": "glucose transport, uptake of 3H-labeled 2-deoxyglucose", "setting": "leptin 5 nM 16.5 h, insulin 5 nM", "value": 2950, "unit": "dpm"}, {"measurement": "glucose transport, uptake of 3H-labeled 2-deoxyglucose", "setting": "leptin 5 nM 16.5 h, insulin 10 nM", "value": 3682, "unit": "dpm"}, {"measurement": "glucose transport, uptake of 3H-labeled 2-deoxyglucose", "setting": "leptin 5 nM 16.5 h, insulin 50 nM", "value": 4031, "unit": "dpm"}, {"measurement": "glucose transport, uptake of 3H-labeled 2-deoxyglucose", "setting": "leptin 5 nM 16.5 h, no insulin (basal)", "value": 712, "unit": "dpm"}, {"measurement": "Glucose Transport, stimulation factor for insulin (stimulated/basal)", "setting": "leptin 10 nM 15 h", "value": 3.5}, {"measurement": "glucose transport, uptake of 3H-labeled 2-deoxyglucose", "setting": "leptin 10 nM 16.5 h, insulin 0.02 nM", "value": 773, "unit": "dpm"}, {"measurement": "glucose transport, uptake of 3H-labeled 2-deoxyglucose", "setting": "leptin 10 nM 16.5 h, insulin 0.05 nM", "value": 802, "unit": "dpm"}, {"measurement": "glucose transport, uptake of 3H-labeled 2-deoxyglucose", "setting": "leptin 10 nM 16.5 h, insulin 0.1 nM", "value": 856, "unit": "dpm"}, {"measurement": "glucose transport, uptake of 3H-labeled 2-deoxyglucose", "setting": "leptin 10 nM 16.5 h, insulin 0.2 nM", "value": 941, "unit": "dpm"}, {"measurement": "glucose transport, uptake of 3H-labeled 2-deoxyglucose", "setting": "leptin 10 nM 16.5 h, insulin 0.5 nM", "value": 1209, "unit": "dpm"}, {"measurement": "glucose transport, uptake of 3H-labeled 2-deoxyglucose", "setting": "leptin 10 nM 16.5 h, insulin 1 nM", "value": 1573, "unit": "dpm"}, {"measurement": "glucose transport, uptake of 3H-labeled 2-deoxyglucose", "setting": "leptin 10 nM 16.5 h, insulin 2 nM", "value": 2061, "unit": "dpm"}, {"measurement": "glucose transport, uptake of 3H-labeled 2-deoxyglucose", "setting": "leptin 10 nM 16.5 h, insulin 5 nM", "value": 2476, "unit": "dpm"}, {"measurement": "glucose transport, uptake of 3H-labeled 2-deoxyglucose", "setting": "leptin 10 nM 16.5 h, insulin 10 nM", "value": 2710, "unit": "dpm"}, {"measurement": "glucose transport, uptake of 3H-labeled 2-deoxyglucose", "setting": "leptin 10 nM 16.5 h, insulin 50 nM", "value": 2967, "unit": "dpm"}, {"measurement": "glucose transport, uptake of 3H-labeled 2-deoxyglucose", "setting": "leptin 10 nM 16.5 h, no insulin (basal)", "value": 755, "unit": "dpm"}, {"measurement": "Glucose Transport, stimulation factor for insulin (stimulated/basal)", "setting": "leptin 30 nM 15 h", "value": 2.35}, {"measurement": "glucose transport, uptake of 3H-labeled 2-deoxyglucose", "setting": "leptin 30 nM 16.5 h, insulin 0.02 nM", "value": 704, "unit": "dpm"}, {"measurement": "glucose transport, uptake of 3H-labeled 2-deoxyglucose", "setting": "leptin 30 nM 16.5 h, insulin 0.05 nM", "value": 745, "unit": "dpm"}, {"measurement": "glucose transport, uptake of 3H-labeled 2-deoxyglucose", "setting": "leptin 30 nM 16.5 h, insulin 0.1 nM", "value": 789, "unit": "dpm"}, {"measurement": "glucose transport, uptake of 3H-labeled 2-deoxyglucose", "setting": "leptin 30 nM 16.5 h, insulin 0.2 nM", "value": 852, "unit": "dpm"}, {"measurement": "glucose transport, uptake of 3H-labeled 2-deoxyglucose", "setting": "leptin 30 nM 16.5 h, insulin 0.5 nM", "value": 943, "unit": "dpm"}, {"measurement": "glucose transport, uptake of 3H-labeled 2-deoxyglucose", "setting": "leptin 30 nM 16.5 h, insulin 1 nM", "value": 1183, "unit": "dpm"}, {"measurement": "glucose transport, uptake of 3H-labeled 2-deoxyglucose", "setting": "leptin 30 nM 16.5 h, insulin 2 nM", "value": 1374, "unit": "dpm"}, {"measurement": "glucose transport, uptake of 3H-labeled 2-deoxyglucose", "setting": "leptin 30 nM 16.5 h, insulin 5 nM", "value": 1782, "unit": "dpm"}, {"measurement": "glucose transport, uptake of 3H-labeled 2-deoxyglucose", "setting": "leptin 30 nM 16.5 h, insulin 10 nM", "value": 1972, "unit": "dpm"}, {"measurement": "glucose transport, uptake of 3H-labeled 2-deoxyglucose", "setting": "leptin 30 nM 16.5 h, insulin 50 nM", "value": 2114, "unit": "dpm"}, {"measurement": "glucose transport, uptake of 3H-labeled 2-deoxyglucose", "setting": "leptin 30 nM 16.5 h, no insulin (basal)", "value": 688, "unit": "dpm"}, {"measurement": "Glucose Transport, stimulation factor for insulin (stimulated/basal)", "setting": "leptin 100 nM 15 h", "value": 1.5}, {"measurement": "glucose transport, uptake of 3H-labeled 2-deoxyglucose", "setting": "leptin 100 nM 16.5 h, insulin 0.02 nM", "value": 766, "unit": "dpm"}, {"measurement": "glucose transport, uptake of 3H-labeled 2-deoxyglucose", "setting": "leptin 100 nM 16.5 h, insulin 0.05 nM", "value": 780, "unit": "dpm"}, {"measurement": "glucose transport, uptake of 3H-labeled 2-deoxyglucose", "setting": "leptin 100 nM 16.5 h, insulin 0.1 nM", "value": 803, "unit": "dpm"}, {"measurement": "glucose transport, uptake of 3H-labeled 2-deoxyglucose", "setting": "leptin 100 nM 16.5 h, insulin 0.2 nM", "value": 813, "unit": "dpm"}, {"measurement": "glucose transport, uptake of 3H-labeled 2-deoxyglucose", "setting": "leptin 100 nM 16.5 h, insulin 0.5 nM", "value": 883, "unit": "dpm"}, {"measurement": "glucose transport, uptake of 3H-labeled 2-deoxyglucose", "setting": "leptin 100 nM 16.5 h, insulin 1 nM", "value": 896, "unit": "dpm"}, {"measurement": "glucose transport, uptake of 3H-labeled 2-deoxyglucose", "setting": "leptin 100 nM 16.5 h, insulin 2 nM", "value": 1034, "unit": "dpm"}, {"measurement": "glucose transport, uptake of 3H-labeled 2-deoxyglucose", "setting": "leptin 100 nM 16.5 h, insulin 5 nM", "value": 1205, "unit": "dpm"}, {"measurement": "glucose transport, uptake of 3H-labeled 2-deoxyglucose", "setting": "leptin 100 nM 16.5 h, insulin 10 nM", "value": 1451, "unit": "dpm"}, {"measurement": "glucose transport, uptake of 3H-labeled 2-deoxyglucose", "setting": "leptin 100 nM 16.5 h, insulin 50 nM", "value": 1723, "unit": "dpm"}, {"measurement": "glucose transport, uptake of 3H-labeled 2-deoxyglucose", "setting": "leptin 100 nM 16.5 h, no insulin (basal)", "value": 747, "unit": "dpm"}, {"measurement": "insulin sensitivity of stimulation of glucose transport", "setting": "leptin, basal values unaffected", "value": "drastically reduced"}]}]}
